For this experiment, the system named is FPTase. The experiment is described as follows: PET Imaging in Dogs: blockade of [11C] radiotracer binding. Format: in vivo. As to conditions: dose of 10 mpk infused over 5 minutes; female beagle dogs; radiotracer [11C] compound of Example 6. Here is the method:
Female beagle dogs weighing 7.7-14.6 kg (11.0±2.3 kg) are fasted for at least 12 hours allowing water intake ad libitum, and are premedicated with 0.3-0.4 mL Acepromazine injected i.m. on the day of the experiment. A 20 G two inch venous catheter is placed into the right front leg ulnar vein through which anesthesia is introduced by sodium pentobarbital 25-30 mg/kg in 3-4 ml and maintained with additional pentobarbital at an average dose of 3 mg/kg/hr. Another catheter is inserted into the contralateral ulnar vein for radiotracer administration.
Oxygen saturation of circulating blood is measured with a pulse oximeter (Nellcor Inc., Hayward, Calif.) placed on the tongue of the animal. Circulatory volume is maintained by intravenous infusion of isotonic saline. A 22 G cannula is inserted into the anterior tibial or distal femoral artery for continuous pressure monitoring (Spacelabs™, model 90603A). EKG, heart rate, and core temperature are monitored continuously. In particular, EKG is observed for ST segment changes and arrhythmias. […]
For uninhibited distribution of radiotracer, regions of interest (ROIs) are drawn on the reconstructed image includes the kidney cortex and a region of liver which is removed from the gallbladder images. […] Data are expressed as radioactivity per unit time per unit volume (μCi/cc/mCi injected dose). […]

Consider “(S)-1-(3-Fluoroethoxy-5-bromophenyl)-4-[1-(4-cyanobenzyl) -5-imidazoylmethyl]-5-[(methanesulfonyl)ethyl]-2-piperazinone [Example 2]”, for which the “block of PET radiotracer binding (maximum enzyme-specific signal)” value is “completely block radiotracer binding”.

(Values after US6458935B1, “Radiolabeled farnesyl-protein transferase inhibitors” (Merck & Co., Inc., priority 1999, dated 2002).)
